From patent US4321384A, “Antihypertensive agents” (American Home Products Corporation, priority 1981, dated 1982) come the findings set out here.

The subject of experiment [1] is spontaneously hypertensive rats. Description: Systolic blood pressure lowering in spontaneously hypertensive rats. It counts as in vivo, rat. The following applies: 1.5 hours post dose 25 mg/kg.
In experiment [2] the test system is rabbit aortic strips. Nature of the experiment: Ca+2 antagonism: relaxation of potassium-contracted rabbit aortic strips. Format: cell-based. The conditions noted are these: Oryctolagus cuniculus; 10^-5 M bath concentration; strips contracted with 100 millimoles potassium ion; read-out: percent relaxation (P.R.). The protocol:
After a stable active tension has developed in the strip, as measured by Statham UC-2 force transducers and recorded on an eight channel Beckman Dynograph Polygraphic Recorder, an amount of the antagonist was added to the organ bath to make a 10^-5 molar concentration of antagonist. The […] effect, expressed as percent relaxation, was taken from the mean of at least two experiments. […] A Ca^+2 antagonist producing a 20 percent relaxation of aortic tissue in this test procedure at a 10^-5 molar bath concentration of the antagonist, generally produces a significant reduction in blood pressure when a sufficient amount is given to the spontaneously hypertensive rat. The following examples illustrate the preparation of a representative number of compounds of this invention. After each example, the Ca^+2 antagonist activity of the compound is presented in terms of percent relaxation (P.R.) at the stated concentration. Similarly, the antihypertensive activity is reported in terms of millimeters mercury (mmHg) blood pressure (B.P.) reduction at the stated time post 50 mg/kg oral dosing.

Experiment [3] relates to rabbit aortic strips. The description is as above. Format: cell-based. The following applies: Oryctolagus cuniculus; 10^-6 M bath concentration; strips contracted with 100 millimoles potassium ion; read-out: percent relaxation (P.R.).
Experiment [4] concerns spontaneously hypertensive rats. Nature of the experiment: Systolic blood pressure lowering in spontaneously hypertensive rats. It counts as in vivo, rat. On the procedure:
The in vivo blood pressure lowering ability of the compounds of this invention was established by measuring the systolic pressure of spontaneously hypertensive rats with a Decker Caudal Plethysmograph or similar sensor device. The compound being tested is administered to groups of four rats and their blood pressure is read prior to compound administration and at 1.5 and 4 hours after compound administration. Depending upon the behavior of the compound being tested, the schedule of blood pressure readings and route of administration is modified. Initially the compounds are administered orally but where compound solubility is a factor, the compounds may be administered parenterally (i.e. i.p., i.m., s.c., i.v., etc.) as desired. The compounds of this invention were initially administered orally at a standard testing dose of 50 mg/kg.
The following examples illustrate the preparation of a representative number of compounds of this invention. After each example, the Ca^+2 antagonist activity of the compound is presented in terms of percent relaxation (P.R.) at the stated concentration. Similarly, the antihypertensive activity is reported in terms of millimeters mercury (mmHg) blood pressure (B.P.) reduction at the stated time post 50 mg/kg oral dosing.

For `COC(=O)C1=C(C)NC2=C(C(=O)CNC2)C1c1cccc([N+](=O)[O-])c1` (stereo not drawn) [Example 13, 1,4,5,6,7,8-Hexahydro-2-methyl-4-(3-nitrophenyl)-5-oxo-1,7-naphthyridine-3-carboxylic acid methyl ester], the “blood pressure (B.P.) reduction” value in experiment [1] was -58 mmHg. In addition, in experiment [2], the inhibition at 10 µM turned out to be 86.5%.
On to `COC(=O)C1=C(C)NC2=C(C(=O)CN(Cc3ccccc3)C2)C1c1cccc(C)c1C` (stereo not drawn) [Example 20, 4-(2,3-dimethylphenyl)-1,4,5,6,7,8-hexahydro-2-methyl-5-oxo-7-(phenylmethyl)-1,7-naphthyridine-3-carboxylic acid methyl ester], for which the inhibition at 1 µM in experiment [3] was found to be 33.3%. Besides, the inhibition at 10 µM in experiment [2] was found to be 80.4%. Besides, the figures for the “blood pressure (B.P.) reduction” value in experiment [4] (1.5 hours post 50 mg/kg oral dosing) and in experiment [4] (4 hours post 50 mg/kg oral dosing) were -24 mmHg and -39 mmHg, respectively.
